Data taken from patent US20260159465A1, “METHODS OF MAKING AND USING 1-METHYLEFFUSOL” (Laboratory for Synthetic Chemistry and Chemical Biology …, priority 2024, published 2026).

Tests used:
MC3T3-E1 osteoblasts [1] = experiment: Stimulation of alkaline phosphatase (ALP) activity as a marker of bone forming activity; format: cell-based; details: 0.5 μM and 1.5 μM, 4 days; ASC+b-GP as positive control
Procedure: Cells were treated with 0.5 μM and 1.5 μM concentrations of 1-Methyleffusol for 4 days and the alkaline phosphatase (ALP) activity, as a marker of bone forming activity, was measured. Ascorbate and beta-glycerophosphate treatment (ASC+b-GP) was performed as positive control for ALP induction.

bone forming activities = details: prior studies (U.S. application Ser. No. 17/713,384; Chinese Application No. 202210551690.4); cited from earlier work
MC3T3-E1 osteoblasts [2] = experiment: Promotion of osteoblast mineralization: calcium deposition by Alizarin Red staining; format: cell-based; details: 1.5 or 5 mM in osteoblast mineralization medium (OM), 14 days
Procedure: Cells were treated with 1-Methyleffusol (1.5 or 5 mM) in osteoblast mineralization medium (OM) for 14 days, and the calcium deposition in the cell layer was measured by Alizarin Red staining (images not shown).

C=Cc1cc(O)c(C)c2c1-c1ccc(O)c(C)c1CC2 [1-Methyleffusol, 1,8-dimethyl-4-vinyl-9,10-dihydrophenanthrene-2,7-diol]
alkaline phosphatase (ALP) activity (MC3T3-E1 osteoblasts [1]): stimulate ALP activity | stimulation of bone forming activities (bone forming activities): exhibited the ability for stimulation of bone forming activities | mineralization (calcium deposition in the cell layer, Alizarin Red staining) (MC3T3-E1 osteoblasts [2]): promoted mineralization
